Assay results: ChEMBL document CHEMBL1201862, “PubChem BioAssay data set” (2004)
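96-well plates; 48 h exposure; 5 concentrations. Endpoints by linear interpolation between flanking doses. Not reached: highest tested concentration assigned. GI50 marks 50% less growth.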 Calls of active or inactive are those of the source. Rule as the data show it: active = GI50 up to about 1.1 µM and inactive = higher. Numbered stars: 1 amine (or outer) side, 2 acyl side, 3 side chain; on linkers, the order of the positions; unused ones are H or OH. Square brackets hold non-standard residues; d marks the D form. Peptide text beside a SMILES is read from it. X55 = CC[C@H](C)[C@H](OC(=O)[C@@H](C)[C@@H](CC)N[*:1])C(=O)[*:2]; X31 = C[C@H](N[*:1])C(=O)C(C)(C)C(=O)[*:2]; NMeY = CN[C@@H](Cc1ccc(O)cc1)C(=O)O; NMeL = CN[C@@H](CC(C)C)C(=O)O; NMeV = CN[C@H](C(=O)O)C(C)C

Experiments:
Assay in all cases: NCI anticancer screen, dose series, 48 h
UACC-257 = system: UACC-257
LOX IMVI = system: LOX IMVI
PC-3 = system: PC-3
ACHN = system: ACHN
CCRF-CEM = system: CCRF-CEM
UO-31 = system: UO-31
SF-295 = system: SF-295
KM-20L2 = system: KM-20L2
HCT-15 = system: HCT-15
M14 = system: M14
HT-29 = system: HT-29
U-251 = system: U-251
T47D = system: T47D
SNB-19 = system: SNB-19
DLD-1 = system: DLD-1
MOLT-4 = system: MOLT-4
CAKI-1 = system: CAKI-1
EKVX = system: EKVX
TK-10 = system: TK-10

Compound: CC[C@H](C)[C@@H]1OC(=O)[C@@H](C)[C@@H](CC)NC(=O)[C@H](C)NC(=O)C(C)(C)C(=O)[C@H](C)NC(=O)[C@H](Cc2ccc(OC)cc2)N(C)C(=O)[C@H](C(C)C)N(C)C(=O)CNC(=O)[C@H](CC(C)C)N(C)C(=O)CNC1=O [DOLASTATIN 11] (cyclo(A[X55]G[NMeL]G[NMeV][NMeY](Me)[X31]))
- GI50 (UACC-257): 81.7 nM (active)
- GI50 (LOX IMVI): 10 nM (active)
- GI50 (PC-3): 84.9 nM (active)
- GI50 (ACHN): 32.7 nM (active)
- GI50 (CCRF-CEM): 27.4 nM (active)
- GI50 (UO-31): 169 nM (active)
- GI50 (SF-295): 83.8 nM (active)
- GI50 (KM-20L2): < 19.7 nM (active)
- GI50 (HCT-15): 670 nM
- GI50 (M14): < 14.8 nM (active)
- GI50 (HT-29): 26.4 nM (active)
- GI50 (U-251): 15.8 nM (active)
- GI50 (T47D): 448 nM (active)
- GI50 (SNB-19): 185 nM (active)
- GI50 (DLD-1): < 36.1 nM (active)
- GI50 (MOLT-4): 543 nM (active)
- GI50 (CAKI-1): 34 nM (active)
- GI50 (EKVX): 102 nM (active)
- GI50 (TK-10): 71.3 nM (active)
